According to the supplement of paper PMC10307832:

How the values were obtained:
Assay in all cases: relative viability (nuclei count vs DMSO), 5 days (fraction); higher = more cells survive
BAY61-3606 + Decitabine = compound: COC1=C(C=C(C=C1)C2=CC3=NC=CN3C(=N2)NC4=C(C=CC=N4)C(=O)N)OC [BAY61-3606] + Nc1ncn([C@H]2C[C@H](O)[C@@H](CO)O2)c(=O)n1 [Decitabine] (partner 2 µM)
Outline: (§1)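 The day after seeding in 1536-well plates, lung cancer cell lines were treated by pin tool with a single drug, or with a fixed anchor-drug dose together with five library-drug doses (not always all listed) in √10 steps. After 5 days, a combined fix-and-stain solution (final 0.05% Triton X-100, 1% formaldehyde, 1 ug/ml Hoechst) was added. Nuclei counted on 4× images gave relative viability as treated counts over vehicle counts, reported as the median of duplicate plates.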

Doxorubicin + AZD7762 = compound: COc1cccc2c1C(=O)c1c(O)c3c(c(O)c1C2=O)C[C@@](O)(C(=O)CO)C[C@@H]3O[C@H]1C[C@H](N)[C@H](O)[C@H](C)O1 [Doxorubicin] + NC(=O)Nc1cc(-c2cccc(F)c2)sc1C(=O)N[C@H]1CCCNC1 [AZD7762] (partner 0.2 µM)
Outline: as §1

Doxorubicin + Trametinib = compound: COc1cccc2c1C(=O)c1c(O)c3c(c(O)c1C2=O)C[C@@](O)(C(=O)CO)C[C@@H]3O[C@H]1C[C@H](N)[C@H](O)[C@H](C)O1 [Doxorubicin] + CC(=O)Nc1cccc(-n2c(=O)n(C3CC3)c(=O)c3c(Nc4ccc(I)cc4F)n(C)c(=O)c(C)c32)c1 [Trametinib] (partner 0.02 µM)
Outline: as §1

BAY61-3606 + Pictilisib = compound: COC1=C(C=C(C=C1)C2=CC3=NC=CN3C(=N2)NC4=C(C=CC=N4)C(=O)N)OC [BAY61-3606] + CS(=O)(=O)N1CCN(Cc2cc3nc(-c4cccc5[nH]ncc45)nc(N4CCOCC4)c3s2)CC1 [Pictilisib] (partner 1 µM)
Outline: as §1

| Cell Line | relative viability (BAY61-3606 + Decitabine; first compound 0.02 µM) | relative viability (BAY61-3606 + Decitabine; first compound 0.06325 µM) | relative viability (BAY61-3606 + Decitabine; first compound 0.2 µM) | relative viability (BAY61-3606 + Decitabine; first compound 0.6325 µM) | relative viability (BAY61-3606 + Decitabine; first compound 2 µM) | relative viability (Doxorubicin + AZD7762; first compound 0.001 µM) | relative viability (Doxorubicin + AZD7762; first compound 0.003162 µM) | relative viability (Doxorubicin + AZD7762; first compound 0.01 µM) | relative viability (Doxorubicin + AZD7762; first compound 0.03162 µM) | relative viability (Doxorubicin + AZD7762; first compound 0.1 µM) | relative viability (Doxorubicin + Trametinib; first compound 0.001 µM) | relative viability (Doxorubicin + Trametinib; first compound 0.003162 µM) | relative viability (Doxorubicin + Trametinib; first compound 0.01 µM) | relative viability (Doxorubicin + Trametinib; first compound 0.03162 µM) | relative viability (Doxorubicin + Trametinib; first compound 0.1 µM) | relative viability (BAY61-3606 + Pictilisib; first compound 0.02 µM) | relative viability (BAY61-3606 + Pictilisib; first compound 0.06325 µM) | relative viability (BAY61-3606 + Pictilisib; first compound 0.2 µM) | relative viability (BAY61-3606 + Pictilisib; first compound 0.6325 µM) | relative viability (BAY61-3606 + Pictilisib; first compound 2 µM) |
| --- | --- | --- | --- | --- | --- | --- | --- | --- | --- | --- | --- | --- | --- | --- | --- | --- | --- | --- | --- | --- |
| 201T | 0.87 | 0.923 | 0.864 | 0.896 | 0.834 | 0.626 | 0.756 | 0.642 | 0.556 | 0.577 | 0.699 | 0.727 | 0.709 | 0.71 | 0.736 | 0.716 | 0.677 | 0.761 | 0.703 | 0.744 |
| A549 | 0.222 | 0.261 | 0.224 | 0.237 | 0.198 | – | – | – | – | – | – | – | – | – | – | 0.585 | 0.566 | 0.532 | 0.572 | 0.436 |
| A-427 | 0.579 | 0.561 | 0.565 | 0.611 | 0.622 | 0.733 | 0.857 | 0.713 | 0.463 | 0.482 | 0.782 | 0.708 | 0.743 | 0.534 | 0.418 | 0.846 | 0.709 | 0.744 | 0.751 | 0.646 |
| ABC-1 | 1.04 | 1.08 | 0.957 | 1.22 | 0.97 | 0.443 | 0.937 | – | 0.655 | 0.6 | – | – | – | – | – | 0.822 | 0.766 | 0.787 | 0.709 | 0.538 |
| BEN | 0.798 | 0.688 | 0.77 | 0.769 | 0.755 | 0.96 | 0.65 | 0.82 | 0.562 | 0.624 | 1.02 | 0.854 | 0.897 | 0.723 | 0.968 | 0.71 | 0.476 | 0.6 | 0.655 | 0.599 |
| CAL-12T | – | – | – | – | – | 0.727 | 0.673 | 0.529 | 0.668 | 0.438 | 0.381 | 0.352 | 0.33 | 0.225 | 0.125 | 0.553 | 0.348 | 0.414 | 0.392 | 0.346 |
| COR-L23 | 0.398 | 0.441 | 0.455 | 0.485 | 0.363 | – | – | – | – | – | 0.54 | 0.526 | 0.545 | 0.254 | 0.149 | 0.933 | 0.871 | 0.866 | 0.871 | 0.449 |
| COR-L 105 | 0.764 | 0.672 | 0.543 | 0.63 | 0.475 | – | – | – | – | – | 0.452 | 0.483 | 0.423 | 0.423 | 0.377 | 0.505 | 0.385 | 0.434 | 0.373 | 0.346 |
| Calu-6 | – | – | – | – | – | – | – | – | – | – | – | – | – | – | – | 0.963 | 1.01 | 0.957 | 0.932 | 0.659 |
| ChaGo-K-1 | 0.53 | 0.543 | 0.479 | 0.51 | 0.531 | 0.857 | 0.922 | 0.873 | 0.846 | 0.811 | 0.984 | 0.858 | 0.661 | 0.926 | 0.86 | 0.897 | 0.591 | 0.708 | 0.506 | 0.696 |
| EBC-1 | – | – | – | – | – | – | – | – | – | – | – | – | – | – | – | 0.463 | 0.359 | 0.404 | 0.547 | 0.411 |
| EKVX | 0.362 | 0.344 | 0.318 | 0.349 | 0.328 | 0.719 | 0.844 | 0.794 | 0.725 | 0.486 | 0.384 | 0.317 | 0.368 | 0.39 | 0.361 | 0.415 | 0.404 | 0.407 | 0.411 | 0.388 |
| EMC-BAC-2 | 1.07 | 1.06 | 1.04 | 1.19 | 0.986 | 1.11 | 1.03 | 0.89 | 0.636 | 0.691 | 0.807 | 0.633 | 0.576 | 0.297 | 0.36 | 0.602 | 0.522 | 0.47 | 0.632 | 0.527 |
| EPLC-272H | 0.409 | 0.403 | 0.369 | 0.396 | 0.33 | 0.337 | 0.182 | 0.164 | 0.221 | 0.241 | 0.278 | 0.288 | 0.28 | 0.289 | 0.295 | 0.442 | 0.373 | 0.264 | 0.25 | 0.248 |
| H3255 | 0.529 | 0.571 | 0.677 | 0.779 | 0.509 | 0.859 | 0.818 | 0.821 | 0.964 | 0.764 | – | 0.62 | 0.633 | 0.518 | 0.591 | 0.516 | 0.432 | 0.463 | 0.467 | 0.447 |
| HARA | 0.515 | 0.512 | 0.67 | 0.688 | 0.585 | 1.09 | 0.25 | 0.38 | 0.267 | 0.377 | 0.544 | 0.575 | 0.799 | 0.471 | 0.647 | 0.444 | 0.371 | 0.372 | 0.39 | 0.312 |
| HCC-15 | 0.575 | 0.569 | 0.583 | 0.65 | 0.6 | 1.21 | 1.18 | 1.05 | 1.03 | 1.35 | 0.381 | 0.395 | 0.393 | 0.379 | 0.407 | 0.848 | 0.65 | 0.697 | 0.769 | 0.665 |
| HCC-44 | 0.939 | 0.926 | 0.931 | 0.911 | 0.957 | 0.938 | 1.02 | 1.01 | 1.04 | 0.993 | 0.987 | 1.11 | 1.05 | 1.05 | 1.07 | 0.581 | 0.651 | 0.634 | 0.684 | 0.561 |
| HCC-78 | 0.643 | 0.676 | 0.798 | 0.722 | 0.857 | 0.535 | 0.606 | 0.703 | 0.636 | 0.503 | 0.723 | 0.85 | 0.735 | 0.668 | 0.66 | 0.297 | 0.226 | 0.251 | 0.158 | 0.167 |
